Values joined by “and” are separate entries in the source; they are usually repeats but may differ in a detail not shown here. Equal values may be shown once.
Legend:
D-Ala-D-Ala = assay: ITC of binding to dipeptide; conditions: absence of serum proteins
Source text: (§1) Trans. R. Soc. Lond. Ser. A-Math. Phys. Eng. […] Wiley, (1998) p 103-111; and Cooper, A., Curr. Opin. Chem. Biol. (1999) 3, 557-563.

Lys-D-Ala-D-Lactate = assay: ITC of binding to Lys-D-Ala-D-Lactate; conditions: absence of serum proteins
Source text: as §1

[1] = system: N,N′-diacetyl-Lys-D-Ala-D-Ala; assay: ITC of binding to tri-peptide, with and without HSA
Experimental: Antibiotics and peptides were dissolved in aqueous buffer (20 mM Na phosphate, 150 mM NaCl, pH 7.4) containing HSA, with gentle stirring immediately before each experiment. Peptide concentrations were determined by weight. […] HSA concentrations were determined by UV absorbance (HSA, ε280=37,700; A280^1%=5.44). Spectra were recorded at room temperature in 1 cm pathlength quartz cuvettes using Shimadzu UV-160A or UV-1601 spectrophotometers, with samples diluted quantitatively with buffer if necessary to give absorbance in the 0.1-1 A range.
Isothermal titration calorimetry was performed using a Microcal VP-ITC instrument at 25° C. and 37° C. using standard operating procedures. […] Samples were degassed gently prior to loading to prevent bubble formation in the calorimeter cell.

[2] = Multimer to monomer population by electrospray ion mass spectroscopy; assay type: physicochemical; conditions: dalbavancin 0.1 mg/ml in 8:2 water:isopropanol; teicoplanin 50 and 100 μg/mL in water
Experimental: Experiments were performed using an Applied Biosystem API III+mass spectrometer equipped with a TurboIonSpray source, a Triple Quadrupole analyzer, operating in positive ion mode.
The mass spectra were obtained in electrospray positive mode on a Finnigan LCQ^Deca ion trap instrument previously tuned and calibrated in electrospray mode using Ultramark 1621, caffeine and MRFA (L-metionyl-arginyl-phenilalanyl-arginine).
The mass spectra were obtained in electrospray positive mode on a Finnigan LCQ^Deca ion trap instrument previous tuned and calibrated in electrospray mode using Ultramark 1621, caffeine and MRFA (L-metionyl-arginyl-phenilalanyl-arginine).

Human albumin = Human albumin (Homo sapiens, UniProt P02768); assay: Protein binding by isothermal titration microcalorimetry; conditions: for Calculated percent Binding, Human albumin: albumin 6×10^−4 M assumed
Experimental: (§2) Integrated heat effects, after correction for heats of dilution, were analyzed by non-linear regression using a simple single-site binding model with the standard Microcal ORIGIN software package. Raw data (μcal/sec) for each injection were integrated to give the total heat effect per addition, then divided by amount of injectant to give kcal/mole of injectant. The same integration was applied for control dilution effects, and this was subtracted from the actual titration data. This provided a differential of the binding curve in which the extent of binding is proportional to the total heat liberated (or absorbed). This was then analyzed by non-linear regression methods in terms of various standard binding models.

human α-glycoprotein = assay: as above; conditions: protein […]10^−5 M assumed
Experimental: as §2

[3] = target: N,N′-diacetyl-Lys-D-Ala-D-Ala; assay: ITC, 10 C, 0 uM HSA
[4] = target: N,N′-diacetyl-Lys-D-Ala-D-Ala; assay: ITC, 25 C, 0 uM HSA
[5] = target: N,N′-diacetyl-Lys-D-Ala-D-Ala; assay: ITC, 25 C, with 513 uM HSA

Human albumin, sequence (P02768 25-609): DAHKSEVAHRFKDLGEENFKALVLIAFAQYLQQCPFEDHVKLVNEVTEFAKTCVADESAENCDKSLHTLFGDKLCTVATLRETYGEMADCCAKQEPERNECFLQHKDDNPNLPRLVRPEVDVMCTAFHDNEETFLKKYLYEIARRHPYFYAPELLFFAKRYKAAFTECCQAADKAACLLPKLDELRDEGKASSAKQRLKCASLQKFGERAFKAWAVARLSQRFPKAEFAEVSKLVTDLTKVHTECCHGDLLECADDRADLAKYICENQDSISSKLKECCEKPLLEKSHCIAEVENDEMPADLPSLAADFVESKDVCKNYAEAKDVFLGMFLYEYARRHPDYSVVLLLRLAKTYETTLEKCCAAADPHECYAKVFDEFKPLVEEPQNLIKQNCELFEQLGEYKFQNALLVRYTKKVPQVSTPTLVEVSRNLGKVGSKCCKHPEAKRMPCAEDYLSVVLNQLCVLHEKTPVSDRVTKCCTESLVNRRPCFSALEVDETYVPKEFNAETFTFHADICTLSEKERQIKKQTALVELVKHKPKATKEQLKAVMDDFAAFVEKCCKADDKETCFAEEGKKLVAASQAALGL

CN[C@H](CC(C)C)C(=O)N[C@H]1C(=O)N[C@@H](CC(N)=O)C(=O)N[C@H]2C(=O)N[C@H]3C(=O)N[C@H](C(=O)N[C@H](C(=O)O)c4cc(O)cc(O)c4-c4cc3ccc4O)[C@H](O)c3ccc(c(Cl)c3)Oc3cc2cc(c3O[C@@H]2O[C@H](CO)[C@@H](O)[C@H](O)[C@H]2O[C@H]2C[C@](C)(N)[C@H](O)[C@H](C)O2)Oc2ccc(cc2Cl)[C@H]1O [Vancomycin]
Binding to dipeptide (D-Ala-D-Ala) (D-Ala-D-Ala): no evidence of binding | Binding to Lys-D-Ala-D-Lactate (Lys-D-Ala-D-Lactate): no evidence of binding | Kass ([1]; 10 °C, [HSA] 0 μM): 6.90E+05 L M^−1 | Kass ([1]; 25 °C, [HSA] 0 μM): 3.40E+05 L M^−1 and 3.60E+05 L M^−1 | Kass ([1]; 25 °C, [HSA] 513 μM): 2.90E+05 L M^−1 | Binding to tri-peptide in the presence of HSA vs absence ([1]; control ITC experiments): comparable to those seen in the absence of HSA

Teicoplanin
Multimers in solution (ESI-MS) [2]: does not show multimeric complexes in solution | Apparent binding affinity Ka, Human albumin (Human albumin; 25° C., pH 7.4, ± SD of fit): 0.96 (±0.08) ×10^5 M^−1 | Calculated percent Binding, Human albumin (Human albumin; antibiotic 1 μM): 98.3% | Calculated percent Binding, Human albumin (Human albumin; antibiotic 10 μM): 98.3% | Calculated percent Binding, Human albumin (Human albumin; antibiotic 100 μM): 98.0% | Calculated percent Binding, Human α-glycoprotein (human α-glycoprotein; antibiotic 1 μM): 9.6% | Calculated percent Binding, Human α-glycoprotein (human α-glycoprotein; antibiotic 10 μM): 9.1% | Calculated percent Binding, Human α-glycoprotein (human α-glycoprotein; antibiotic 100 μM): 6.0%

vancomycin hydrochloride (peptide)
Kd [3]: 1.45 µM | ΔH [3]: -9.49 kcal/mol | ΔS [3]: -6.8 eu | Kd [4]: 2.94 µM and 2.78 µM | ΔH [4]: -10.7 kcal/mol and -12.9 kcal/mol | ΔS [4]: -10.6 eu and -17.8 eu | Kd [5]: 3.45 µM | ΔH [5]: -10.1 kcal/mol | ΔS [5]: -8.8 eu

Source: patent US20050090433A1 (priority 2002, published 2005)
